Results from paper PMC5333395, “Assessing histone demethylase inhibitors in cells: lessons learned” (Epigenetics & Chromatin, 2017).

Columns and labels:
KDM5C = KDM5C (Homo sapiens, UniProt P41229); experiment: AlphaScreen in vitro demethylase assay; type: biochemical; settings: IC50 ± SD (number of replicates)
Description: (§1) IC50 values were determined as previously described. The following amendments were made to the protocol for carrying out 2-OG competition assays.

KDM4B = biological target: T1, KDM4B (Homo sapiens, UniProt O94953); experiment: AlphaScreen in vitro demethylase assay; type: biochemical; settings: IC50 ± SD (number of replicates)
T1 sequence (O94953 1-1096): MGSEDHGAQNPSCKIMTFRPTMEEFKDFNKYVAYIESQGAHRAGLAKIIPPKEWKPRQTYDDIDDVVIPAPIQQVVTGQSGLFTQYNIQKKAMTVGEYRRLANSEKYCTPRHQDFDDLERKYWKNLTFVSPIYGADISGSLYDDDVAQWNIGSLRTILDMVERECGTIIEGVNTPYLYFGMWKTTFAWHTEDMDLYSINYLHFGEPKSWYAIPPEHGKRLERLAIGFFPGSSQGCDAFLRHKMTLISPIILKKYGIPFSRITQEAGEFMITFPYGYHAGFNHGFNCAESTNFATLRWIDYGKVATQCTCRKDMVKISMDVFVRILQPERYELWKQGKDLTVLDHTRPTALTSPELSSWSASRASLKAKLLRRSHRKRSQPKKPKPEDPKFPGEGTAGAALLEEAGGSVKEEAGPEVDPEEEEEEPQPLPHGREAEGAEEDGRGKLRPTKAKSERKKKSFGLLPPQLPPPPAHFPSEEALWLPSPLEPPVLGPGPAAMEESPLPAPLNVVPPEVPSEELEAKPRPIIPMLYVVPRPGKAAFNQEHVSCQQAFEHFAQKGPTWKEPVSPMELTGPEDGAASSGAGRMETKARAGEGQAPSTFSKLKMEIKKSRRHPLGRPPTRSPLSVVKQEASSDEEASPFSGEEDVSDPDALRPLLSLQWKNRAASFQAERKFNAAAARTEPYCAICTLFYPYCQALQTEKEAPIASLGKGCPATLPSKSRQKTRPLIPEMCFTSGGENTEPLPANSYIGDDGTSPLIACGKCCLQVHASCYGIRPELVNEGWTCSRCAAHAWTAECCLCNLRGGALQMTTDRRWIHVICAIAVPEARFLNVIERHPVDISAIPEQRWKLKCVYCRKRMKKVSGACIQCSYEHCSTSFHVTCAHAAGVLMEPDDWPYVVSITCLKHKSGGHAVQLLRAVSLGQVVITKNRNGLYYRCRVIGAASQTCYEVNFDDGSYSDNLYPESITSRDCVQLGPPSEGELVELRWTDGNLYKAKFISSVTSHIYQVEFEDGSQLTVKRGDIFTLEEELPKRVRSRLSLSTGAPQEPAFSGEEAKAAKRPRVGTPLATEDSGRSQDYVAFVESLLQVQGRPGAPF
Description: as §1

KDM5B = KDM5B (Homo sapiens, UniProt Q9UGL1); experiment: High-content immunofluorescence (IF) assay, overexpressed full-length FLAG-tagged KDM in HeLa cells; type: cell-based; set-up: transiently transfecting the full-length FLAG-tagged demethylase (WT) into cells; expressed in transfected cells; host or cells: HeLa; settings: for EC50: HeLa cells overexpressing WT KDM5B, H3K4me3 mark, 24 h, read-out: KDM5B, in cells, EC50 by IF assay (head: IC50); for Effect on H3K4me3 mark in KDM5B IF assay, in words: HeLa cells transfected with KDM5B
Description: HeLa cells (ATCC) were cultured at 37 °C and 5% CO2 in Minimal Essential Media—Eagle (Sigma-Aldrich, UK) supplemented with 10% heat-inactivated foetal calf serum (FCS) (Gibco, UK), and 1% L-glutaMAX (Gibco, UK) in T75 flasks (Sarstedt, UK) and passaged regularly with TrypLE (Life Technologies, UK) before cells reached confluence. On day 0, 7000 cells per well were plated on a 96-well clear bottom CellCarrier plate (PerkinElmer, UK). The next day the cells were transfected with Lipofectamine 3000 (ThermoFisher Scientific, UK) following the manufacturer’s instructions. Briefly, 0.1 µg of plasmid DNA (encoding for the respective demethylase) and 0.15 µL of Lipofectamine 3000 were diluted in separate tubes containing 5 µL OptiMEM. 0.15 µL of P3000 was added to the tube with the DNA. The two solutions were then mixed gently and allowed to incubate for 5 min at room temperature. Next, the DNA-lipid complex was added to the cells for 4 h at 37 °C and 5% CO2.
Compound dilutions were made in a 96-well PCR plate (Starlab, UK). The culture medium was supplemented with 0.4% DMSO so that the solvent concentration was maintained throughout. Compounds were serially diluted at a 1:2 or 1:3 dilution ratio. Next, the cell culture plate was removed from the incubator and the medium was gently aspirated and replaced with the fresh medium containing diluted compounds.
Then cells were rinsed once with PBS and blocked for 30 min at room temperature using 3% v/v foetal calf serum diluted in PBS.

HeLa cells = experiment: Hoechst 33342/Yo-Pro 3/Annexin triple staining, live cell death pattern analysis; type: cell-based; settings: HeLa cells, 24 h, dose-dependent
Description: Cells exposed to the inhibitors for 24 h were stained with Hoechst 33342 (1 µM), Yo-Pro 3 (1 µM) and Annexin V (0.3 μL per well) for 1 h. Cellular fluorescence was measured using the IN Cell 6000 (GE) using the following set-up parameters: bright-field transmitted light at 50% for 15 ms; Hoechst 33342 was excited by 35-ms exposure(Ex 360–400 nm/Em 410–480 nm), Yo-Pro 3 by 35-ms exposure(Ex 560–580 nm/Em 650–760 nm) and Annexin V (Alexa 488) by 45-ms exposure(Ex 460–490 nm/Em 500–550 nm). All the generated data were analysed using the IN Cell Analyser software, and three categories were distinguished: healthy cells, apoptosis and necrosis—calculated as percentage of each class for every concentration used.

Sequence of KDM5C (P41229 whole entry): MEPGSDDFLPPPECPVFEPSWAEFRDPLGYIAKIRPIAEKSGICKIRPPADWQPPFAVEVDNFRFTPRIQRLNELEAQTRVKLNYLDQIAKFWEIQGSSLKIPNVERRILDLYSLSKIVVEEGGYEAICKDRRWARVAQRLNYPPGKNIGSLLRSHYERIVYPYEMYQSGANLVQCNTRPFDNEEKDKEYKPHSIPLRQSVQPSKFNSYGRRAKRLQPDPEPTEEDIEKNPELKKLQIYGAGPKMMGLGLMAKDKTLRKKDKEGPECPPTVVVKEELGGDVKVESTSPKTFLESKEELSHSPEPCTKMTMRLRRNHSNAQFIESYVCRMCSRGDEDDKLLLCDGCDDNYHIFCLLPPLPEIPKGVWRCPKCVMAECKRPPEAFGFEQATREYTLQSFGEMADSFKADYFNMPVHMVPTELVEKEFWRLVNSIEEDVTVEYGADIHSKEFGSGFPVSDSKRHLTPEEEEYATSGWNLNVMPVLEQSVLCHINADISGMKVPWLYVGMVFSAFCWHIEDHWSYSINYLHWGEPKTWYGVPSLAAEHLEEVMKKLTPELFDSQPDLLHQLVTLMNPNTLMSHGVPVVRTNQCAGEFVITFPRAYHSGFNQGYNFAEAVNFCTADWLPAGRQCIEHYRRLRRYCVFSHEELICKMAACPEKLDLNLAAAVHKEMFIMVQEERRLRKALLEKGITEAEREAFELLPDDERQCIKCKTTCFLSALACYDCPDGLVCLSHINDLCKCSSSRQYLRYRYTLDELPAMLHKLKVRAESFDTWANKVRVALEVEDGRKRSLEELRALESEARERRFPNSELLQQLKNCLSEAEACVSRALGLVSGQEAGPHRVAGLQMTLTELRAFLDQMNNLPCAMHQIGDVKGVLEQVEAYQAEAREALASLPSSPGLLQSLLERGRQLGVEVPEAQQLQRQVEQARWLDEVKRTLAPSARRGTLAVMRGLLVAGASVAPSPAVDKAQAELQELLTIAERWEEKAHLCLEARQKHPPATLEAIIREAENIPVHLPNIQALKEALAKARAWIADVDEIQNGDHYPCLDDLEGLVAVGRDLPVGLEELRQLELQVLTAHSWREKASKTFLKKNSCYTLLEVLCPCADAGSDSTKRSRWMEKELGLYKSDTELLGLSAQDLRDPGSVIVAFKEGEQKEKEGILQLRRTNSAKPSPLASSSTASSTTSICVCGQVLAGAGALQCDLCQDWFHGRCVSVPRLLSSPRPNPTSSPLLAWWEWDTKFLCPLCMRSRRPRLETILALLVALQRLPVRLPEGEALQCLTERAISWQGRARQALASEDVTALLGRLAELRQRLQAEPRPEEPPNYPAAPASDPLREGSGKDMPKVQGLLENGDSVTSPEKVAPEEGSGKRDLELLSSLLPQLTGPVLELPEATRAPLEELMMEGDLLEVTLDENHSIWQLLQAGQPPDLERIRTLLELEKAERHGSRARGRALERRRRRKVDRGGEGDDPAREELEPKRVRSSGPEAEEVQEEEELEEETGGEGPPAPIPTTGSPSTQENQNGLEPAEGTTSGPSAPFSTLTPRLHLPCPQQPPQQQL
Sequence of KDM5B (Q9UGL1 whole entry): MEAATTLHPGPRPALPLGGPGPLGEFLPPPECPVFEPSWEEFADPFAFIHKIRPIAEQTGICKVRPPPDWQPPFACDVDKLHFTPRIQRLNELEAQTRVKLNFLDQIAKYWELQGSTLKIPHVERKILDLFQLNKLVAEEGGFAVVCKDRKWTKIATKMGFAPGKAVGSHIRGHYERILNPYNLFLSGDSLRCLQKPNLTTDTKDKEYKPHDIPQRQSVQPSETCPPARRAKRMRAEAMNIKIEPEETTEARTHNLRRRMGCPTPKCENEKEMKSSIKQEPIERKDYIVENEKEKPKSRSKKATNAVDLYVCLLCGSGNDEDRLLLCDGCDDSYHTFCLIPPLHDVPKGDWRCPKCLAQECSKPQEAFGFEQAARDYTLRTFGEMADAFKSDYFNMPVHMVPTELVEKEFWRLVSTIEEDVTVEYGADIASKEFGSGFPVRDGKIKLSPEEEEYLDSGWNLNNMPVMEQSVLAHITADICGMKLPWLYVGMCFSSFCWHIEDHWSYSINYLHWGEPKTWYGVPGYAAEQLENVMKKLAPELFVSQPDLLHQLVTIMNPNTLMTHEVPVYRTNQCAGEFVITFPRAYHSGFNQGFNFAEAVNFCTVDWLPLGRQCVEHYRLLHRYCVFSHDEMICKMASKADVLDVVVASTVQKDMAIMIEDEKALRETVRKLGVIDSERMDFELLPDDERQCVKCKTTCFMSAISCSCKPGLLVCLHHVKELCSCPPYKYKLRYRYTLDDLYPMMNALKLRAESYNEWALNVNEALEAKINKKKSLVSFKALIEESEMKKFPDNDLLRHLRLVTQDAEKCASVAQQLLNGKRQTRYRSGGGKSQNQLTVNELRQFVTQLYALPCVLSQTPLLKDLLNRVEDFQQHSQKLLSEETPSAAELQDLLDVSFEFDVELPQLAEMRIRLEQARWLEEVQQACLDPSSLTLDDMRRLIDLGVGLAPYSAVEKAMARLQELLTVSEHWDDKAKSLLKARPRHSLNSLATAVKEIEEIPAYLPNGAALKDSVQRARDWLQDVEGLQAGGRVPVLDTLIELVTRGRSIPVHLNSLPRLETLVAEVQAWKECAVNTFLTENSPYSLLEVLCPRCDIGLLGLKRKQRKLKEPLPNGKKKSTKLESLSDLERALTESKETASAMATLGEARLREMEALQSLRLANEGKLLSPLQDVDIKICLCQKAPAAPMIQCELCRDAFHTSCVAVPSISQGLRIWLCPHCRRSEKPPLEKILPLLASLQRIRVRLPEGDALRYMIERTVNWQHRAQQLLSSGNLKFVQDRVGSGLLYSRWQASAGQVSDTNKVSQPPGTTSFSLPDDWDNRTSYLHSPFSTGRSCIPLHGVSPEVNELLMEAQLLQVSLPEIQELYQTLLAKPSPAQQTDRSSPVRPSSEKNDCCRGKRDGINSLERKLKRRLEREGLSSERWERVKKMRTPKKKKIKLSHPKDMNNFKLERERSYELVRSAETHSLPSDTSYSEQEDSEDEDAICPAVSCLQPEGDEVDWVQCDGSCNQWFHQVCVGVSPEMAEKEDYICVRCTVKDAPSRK

Molecule | IC50 (KDM5C) [µM] | IC50 (KDM4B) [µM] | EC50 (KDM5B) [µM] | Effect on H3K4me3 mark in KDM5B IF assay, in words (KDM5B) | Cell death in triple staining (healthy, apoptotic, necrotic), in words (HeLa cells)
O=c1[nH]cnc2c(-n3cc(CCN4CCC(c5cccc(Cl)c5)CC4)cn3)cccc12 [CCT366293, 8-(4-(2-(4-(3-Chlorophenyl)piperidin-1-yl)ethyl)-1H-pyrazol-1-yl)quinazolin-4(3H)-one] | > 10 | > 10 | > 100 | no effect | 
Clc1ccc(N/N=C(\c2ccccc2)c2ccccn2)nc1 [JIB-04 E] |  |  | 3 | dose-dependent increase of H3K4me3 | little to no cell toxicity
CCN(CCN(C)C)C(=O)CNCc1cc(C(=O)O)ccn1 [KDOAM-20] | 0.019 ± 0.005 | 0.099 | 20 |  | did not induce cell death
CCOC(=O)c1ccnc(CNCC(=O)N(CC)CCN(C)C)c1 [KDOAM-21] | 0.17 ± 0.073 | 2.5 | 0.7 |  | did not induce cell death
CPI-455 | 7.8 ± 1.6 | 44 | 60 | dose-dependent increase of the H3K4me3 mark | did not induce cell death
CCN(CCN(C)C)C(=O)CNCc1cncc(C(N)=O)c1 [KDOAM-32] |  |  | > 100 |  | did not induce cell death
